Values joined by “and” are separate entries in the source; they are usually repeats but may differ in a detail not shown here. Equal values may be shown once. “Also recorded” adds a separate entry of the source.
Columns and labels:
HDM2 [1] = molecular target: T1, HDM2 (Homo sapiens, UniProt Q00987); test: competition fluorescence polarization experiment (displacement of Flp4 peptide); type: binding; settings: Flp4 at 10 nM with 2 µM HDM2, series of concentrations of spiroligomer; read-out: Ki against Flp4 peptide
T1 construct: A fusion protein consisting of residues 1-140; unnamed fusion partner ('fusion protein'); made in house; host or cells: E. coli BL21

HDM2 [2] = molecular target: T1, HDM2; test: as above; type: binding; settings: hDM2 0.4 μM, Flp4 10 nM, three independent trials
Experimental: Competition Fluorescence Polarization Experiments. To assess the ability of oligomer 2 to […]
competition experiments were undertaken. hDM2 (0.4 μM) and Flp4 control peptide (10 nM) were incubated at room temperature for 30 minutes in binding buffer, followed by the addition of serial dilutions of oligomer 2 (final conc. 400 μM to 0.194 μM). The binding experiments were incubated for a further 30 minute time period, followed by recording of the polarization data. See […]
Bis- Pept ide ( nM ) Po lar A ( mP)
Table S.6. Table of raw values used for the plot of the competition binding experiment; X values are oligomer 2 concentration (in nM) and Y values are polarization (in millipolarization units); data from three independent trials is shown.

[3] = test system: HDM2, p53Y220C and p21 in Huh7 cells; test: Western blot analysis of HDM2, p53 and p21; type: cell-based, human
Experimental: Huh7 cells were incubated with spiroligomer 1 and Nutlin-3 in media at 2, 5, 10 and 20 µM for 17 hours at 37°C. […] Huh7 cells were then incubated with 1 at 15 µM and cells were harvested at 2, 4, 6, 8, 12 and 24 hours. […]
Cell Culture and Treatment. HepG2 (expressing wild-type p53) and Huh7 (expressing mutant p53) cell lines were purchased from the American Type Culture Collection (ATCC) and cultured as monolayers in Dulbecco’s modified Eagle’s medium (DMEM) (Invitrogen) supplemented with 100 mM nonessential amino acid solution, 100 mM sodium pyruvate, 100 U/mL penicillin, 100 μg/mL streptomycin, and 10% heat inactivated fetal bovine serum (FBS) (all from Hyclone).
Cells were maintained at 37° C and 5% CO2 and were treated with media that contained 0.5%
FBS. Nutlin-3 (Sigma) was dissolved in 0.01% DMSO (Sigma).
Both nutlin-3 and spiroligomers were added into the medium for final concentrations of 2 µM, 5 µM, 10 µM and 20 µM for 24 hours. For the western blot experiments detailed below, the time length for incubation with bis-peptide was 17 hours. […]
Western Blotting. For protein extraction, cells were lysed in cell lysis buffer (Cell Signaling) with a protease inhibitor cocktail for 20 minutes on ice. Protein extracts (50 μg) were separated by SDS-PAGE electrophoresis, transferred to nitrocellulose membranes (Schleicher & Schuell), and incubated overnight with primary antibodies to p53, HDM2, p21, and β-actin (all from Santa Cruz Biotechnology). The blots were developed using ECL plus detection system (Amersham Biosciences) and exposed to Kodak imaging films (Kodak BioMax). Images were quantified using ImageJ software (NIH).
Figure S.5. Detection of bis-peptide 1 and Nutlin-3 in HepG2 (left) and Huh7 (right) cells. The concentration of each compound is given in μM and the three proteins (HDM2, p53 and p21) bands are […]

HDM2_25–117 = molecular target: T2, HDM2_25–117 (Homo sapiens, UniProt Q00987); test: direct binding fluorescence polarization assay; settings: fluorescein labeled ligand at 10 nM, varying HDM2; read-out: Kd (HDM2/MDM2)
T2 construct: unnamed fusion partner ('fusion protein'); made in house; host or cells: E. coli BL21
Experimental: To measure the binding affinity of the functionalized spiroligomers to HDM2 we utilized a direct binding fluorescence polarization assay. The binding of the fluorescein labeled spiroligomers was measured at 10 nM spiroligomer in the presence of varying concentrations of HDM2_25–117 [31]. […] The initial screen of spiroligomers including 3–7 was carried out on the spiroligomer backbone containing all (S) stereochemistry to identify appropriate functional groups to mimic the side chains of Phe19, Trp23 and Leu26 of the p53 helix.
HDM2 Protein Expression. A fusion protein consisting of residues 1-140 (the plasmid was a generous gift from the lab of Neil Zondlo, University of Delaware) was prepared by over-expression.4 Plasmids were used to transform chemically competent E-coli BL21 Cells (Novagen), and a single colony was used to inoculate 2×4 mL LB media culture tubes containing 0.1 mg/mL ampicillin, at 37 °C overnight. These overnight cultures were used to inoculate a 1 L culture of TB media containing 0.1 mg/ml ampicillin. The culture was incubated at 37 °C with shaking at 250 rpm until the optical density at 600 nm reached to 0.9 absorbance units. Protein overexpression was then induced by the addition of 20% isopropyl β-D-thiogalactoside (IPTG) to 0.4 mM final concentration. The culture was then grown for additional 5 hours at 30 °C. Then cells were harvested at 4 °C by centrifugation at 4500 rpm for 20 min.
The cell pellet was resuspended in chilled 1x Binding Buffer (0.5 M NaCl, 20 mMTris-Hcl, 5 mM imidazole, pH 7.9), frozen and stored at -80 °C until protein purification.
Protein Purification. The frozen cell pellet was thawed at 4 °C and lysed by sonication for 2 minutes with 10 sec on and 20 sec off. Cell debris was pelleted by centrifugation for 30 min at 15000 g, 4 °C and the supernatant was filtered through a 0.2 μm syringe filter. A column was prepared using 2 mL Novagen His-Bind suspended resin and resin was washed with 3 volumes DI water. The flow rate maintained was not more than 0.5 ml/min throughout the purification.
The resin was charged with 5 vol 1x Charge Buffer (50 mM NiSO4) and then equilibrated with 3 vol 1x Binding Buffer (5 mM imidazole). After loading the column with prepared extract, the resin was washed with 10 vol 1x Binding Buffer and then with 6 vol 1x Wash Buffer (10 mM imidazole). Protein was then eluted with 6 vol 1x Elution Buffer (1 M imidazole). The eluate was captured in fractions of 0.5 ml. Fractions were assayed with Coomasie blue and desired fractions were combined and dialyzed using spectra/por 6 Dialysis Membranes of 10,000 MWCO (Spectrum Laboratories) in PBS (pH 7.4, 5 mM EDTA and 0.5 mM DTT) for overnight.
The resulting protein was characterized by SDS-PAGE (4-20% gradient gel) for purity analysis and concentrations were measured by UV analysis.
Fresh protein was used immediately for protein binding experiments. […]
Direct Binding Fluorescence Polarization Experiments. Fluorescence polarization experiments were undertaken to assess the ability of spiroligomers to bind HDM2, a protein with hydrophobic cleft that binds the p53 N-terminal helical domain. Fluoresceinated oligomers (conc. of 10 nM) were incubated for 30 minutes at room temperature with sequential dilutions of […]

T2 sequence (Q00987 25-117): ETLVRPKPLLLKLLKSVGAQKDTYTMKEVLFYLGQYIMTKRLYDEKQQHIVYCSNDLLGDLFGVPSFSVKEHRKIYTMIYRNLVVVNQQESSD
T1 sequence (Q00987 1-140): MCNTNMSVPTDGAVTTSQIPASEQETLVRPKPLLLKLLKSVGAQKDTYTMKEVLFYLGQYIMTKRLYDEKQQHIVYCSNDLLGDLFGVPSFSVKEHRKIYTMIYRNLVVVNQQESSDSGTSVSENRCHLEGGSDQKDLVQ

CC(C)CN1C(=O)C2CC3(CN2C(=O)C12CC1C(=O)N(Cc4ccc(Cl)c(Cl)c4)C4(CC5C(=O)NC(CCc6ccccc6)C(=O)N5C4)C(=O)N1C2)NC(=O)C(CCC(=O)O)NC3=O (stereo not drawn) [Compound 2]
Ki (HDM2 [1]): 5 µM | polarization of Flp4 in competition (HDM2 [2]; oligomer 194.8242 nM): 115. 56 mP and 119. 19 mP and 107. 52 mP | polarization of Flp4 in competition (HDM2 [2]; oligomer 389.6484 nM): 109. 71 mP and 120. 5 mP and 117. 89 mP | polarization of Flp4 in competition (HDM2 [2]; oligomer 779.2969 nM): 107. 07 mP and 119. 05 mP and 110. 95 mP | polarization of Flp4 in competition (HDM2 [2]; oligomer 1558.594 nM): 102. 29 mP and 112. 93 mP and 113. 76 mP | polarization of Flp4 in competition (HDM2 [2]; oligomer 3117.188 nM): 103. 88 mP and 103. 29 mP and 109. 28 mP | polarization of Flp4 in competition (HDM2 [2]; oligomer 6234.375 nM): 97.23 mP and 94.66 mP and 93.84 mP | polarization of Flp4 in competition (HDM2 [2]; oligomer 12468.75 nM): 91.7 mP and 86.62 mP and 91.97 mP | polarization of Flp4 in competition (HDM2 [2]; oligomer 24937.5 nM): 88.82 mP and 82 mP and 88.53 mP | polarization of Flp4 in competition (HDM2 [2]; oligomer 49875 nM): 86.21 mP and 84.81 mP and 86.83 mP | polarization of Flp4 in competition (HDM2 [2]; oligomer 99750 nM): 78.06 mP and 93.73 mP and 94.13 mP | polarization of Flp4 in competition (HDM2 [2]; oligomer 199500 nM): 84.38 mP and 85.9 mP and 80.84 mP | polarization of Flp4 in competition (HDM2 [2]; oligomer 399000 nM): 75.41 mP and 67.78 mP and 78.26 mP

COc1ccc(C2=N[C@@H](c3ccc(Cl)cc3)[C@@H](c3ccc(Cl)cc3)N2C(=O)N2CCNC(=O)C2)c(OC(C)C)c1 [Nutlin-3]
HDM2 levels relative to control cells [3]: not seen; also recorded: very weak stabilization effect on HDM2 | HDM2 levels with time [3]: only very small changes; also recorded: very little effect on HDM2 | p53Y220C levels [3]: No visible effect | p53Y220C levels with time [3]: no observable effect on p53Y220C levels

CC(C)CN1C(=O)[C@@H]2C[C@@]3(CN2C(=O)[C@@]12C[C@H]1C(=O)N(Cc4ccc(Cl)c(Cl)c4)[C@]4(C[C@H]5C(=O)N[C@@H](CCc6ccccc6)C(=O)N5C4)C(=O)N1C2)NC(=O)[C@@H](CCCCNC(=S)Nc1ccc2c(c1)C(=O)OC21c2ccc(O)cc2Oc2cc(O)ccc21)NC3=O [Compound 12]
Kd (HDM2_25–117): 1.6 µM

CC(C)CN1C(=O)[C@@H]2C[C@@]3(CN2C(=O)[C@@]12C[C@H]1C(=O)N(Cc4ccc(Cl)c(Cl)c4)[C@@]4(C[C@H]5C(=O)N[C@H](CCc6ccccc6)C(=O)N5C4)C(=O)N1C2)NC(=O)[C@H](CCCCNC(=S)Nc1ccc2c(c1)C(=O)OC21c2ccc(O)cc2Oc2cc(O)ccc21)NC3=O [Compound 8]
Kd (HDM2_25–117): 23 µM

CC(C)CN1C(=O)[C@@H]2C[C@@]3(CN2C(=O)[C@@]12C[C@H]1C(=O)N(Cc4ccc(Cl)c(Cl)c4)[C@@]4(C[C@H]5C(=O)N[C@H](CCc6ccccc6)C(=O)N5C4)C(=O)N1C2)NC(=O)[C@@H](CCCCNC(=S)Nc1ccc2c(c1)C(=O)OC21c2ccc(O)cc2Oc2cc(O)ccc21)NC3=O [Compound 11]
Kd (HDM2_25–117): 4.6 µM

CC(C)CN1C(=O)[C@@H]2C[C@@]3(CN2C(=O)[C@@]12C[C@H]1C(=O)N(Cc4ccc(Cl)c(Cl)c4)[C@@]4(C[C@@H]5C(=O)N[C@H](CCc6ccccc6)C(=O)N5C4)C(=O)N1C2)NC(=O)[C@@H](CCCCNC(=S)Nc1ccc2c(c1)C(=O)OC21c2ccc(O)cc2Oc2cc(O)ccc21)NC3=O [Compound 10]
Kd (HDM2_25–117): 4.8 µM

CC(C)CCN1C(=O)[C@@H]2C[C@@]3(CN2C(=O)[C@@]12C[C@H]1C(=O)N(Cc4ccc(Cl)c(Cl)c4)[C@]4(C[C@H]5C(=O)N[C@@H](Cc6ccccc6)C(=O)N5C4)C(=O)N1C2)NC(=O)[C@H](CCCCNC(=S)Nc1ccc2c(c1)C(=O)OC21c2ccc(O)cc2Oc2cc(O)ccc21)NC3=O [Compound 5]
Kd (HDM2_25–117): 6.3 µM

CC(C)CN1C(=O)[C@@H]2C[C@@]3(CN2C(=O)[C@@]12C[C@H]1C(=O)N(Cc4ccc(Cl)c(Cl)c4)[C@]4(C[C@@H]5C(=O)N[C@@H](CCc6ccccc6)C(=O)N5C4)C(=O)N1C2)NC(=O)[C@H](CCCCNC(=S)Nc1ccc2c(c1)C(=O)OC21c2ccc(O)cc2Oc2cc(O)ccc21)NC3=O [Compound 9]
Kd (HDM2_25–117): 6.7 µM

CC(C)CN1C(=O)[C@@H]2C[C@@]3(CN2C(=O)[C@@]12C[C@H]1C(=O)N(Cc4cccc5ccccc45)[C@]4(C[C@H]5C(=O)N[C@@H](Cc6ccccc6)C(=O)N5C4)C(=O)N1C2)NC(=O)[C@H](CCCCNC(=S)Nc1ccc2c(c1)C(=O)OC21c2ccc(O)cc2Oc2cc(O)ccc21)NC3=O [Compound S10]
Kd (HDM2_25–117): 16 µM

— publication PMC3475717, “A Spiroligomer α-Helix Mimic That Binds HDM2, Penetrates Human Cells and Stabilizes HDM2 in Cell Culture” (PLoS ONE, 2012)
